US20260028354A1, “TETRAHYDRONAPHTHALENE DERIVATIVES AS ESTROGEN RECEPTOR DEGRADERS” (REGENT OF THE UNIVERSITY OF MICHIGAN, priority 2022, published 2026)
Where two headings read alike, the source gives them in different places.

Columns and labels:
[1] = biological target: ER in MCF-7 cells (Homo sapiens (Human), UniProt P03372); assay: In-cell Western (ICW) ER degradation assay in MCF-7 cells; type: cell-based; conditions: for DC50: MCF-7, ER degradation, read-out: MCF7 DC50
[2] = system: MCF-7 cells; assay: CellTiter-Glo (CTG) cell proliferation assay in MCF-7 cells; type: cell-based; conditions: Homo sapiens, MCF7, 144 h, MCF-7 cell proliferation, Day 6
Text: CellTiter-Glo® (CTG) Assays in MCF-7 and T47D Cell Lines.
In vitro Assay: MCF-7 and T47D CTG assay

[3] = MCF7, MCF-7, maximal ER degradation, 16 hrs treatment, read-out: MCF7 Dmax
[4] = MCF7, read-out: MCF7 Dmax, MCF-7, maximal ER degradation, 16 hrs treatment

ER in MCF-7 cells, sequence (P03372 whole entry): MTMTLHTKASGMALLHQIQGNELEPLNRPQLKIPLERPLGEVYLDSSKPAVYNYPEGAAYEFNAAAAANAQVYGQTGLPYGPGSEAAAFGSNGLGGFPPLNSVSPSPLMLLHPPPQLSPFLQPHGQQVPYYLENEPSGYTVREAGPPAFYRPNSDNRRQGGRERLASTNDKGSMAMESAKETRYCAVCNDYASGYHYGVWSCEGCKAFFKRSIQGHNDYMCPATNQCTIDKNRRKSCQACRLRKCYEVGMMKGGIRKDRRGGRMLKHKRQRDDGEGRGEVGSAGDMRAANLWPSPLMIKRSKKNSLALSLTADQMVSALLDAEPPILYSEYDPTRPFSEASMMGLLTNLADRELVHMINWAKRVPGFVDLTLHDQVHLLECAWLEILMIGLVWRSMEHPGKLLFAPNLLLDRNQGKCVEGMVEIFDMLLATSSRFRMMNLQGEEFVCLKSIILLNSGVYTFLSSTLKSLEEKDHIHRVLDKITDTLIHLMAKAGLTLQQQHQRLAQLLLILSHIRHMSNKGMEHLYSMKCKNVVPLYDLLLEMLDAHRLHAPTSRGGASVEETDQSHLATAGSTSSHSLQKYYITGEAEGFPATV

Dmax [1, 3] [%] | Compound | DC50 ([1]; 16 hrs treatment) [nM] | IC50 [2] [nM] | Dmax [1, 4] [%]
> 75 | COc1cc(N2CC3(CC(CN4CCN5c6ccc7c(c6OC[C@H]5C4)CN([C@H]4CCC(=O)NC4=O)C7=O)C3)C2)c(F)cc1[C@@H]1c2ccc(O)cc2CC[C@@H]1c1ccccc1 [Compound A185, (S)-3-((R)-7-((2-(2-fluoro-4-((1S,2S)-6-hydroxy-2-phenyl-1,2,3,4-tetrahydronaphthalen-1-yl)-5-methoxyphenyl)-2-aza-spiro[3.3]heptan-6-yl)methyl)-1-oxo-1,3,5,5a,6,7,8,9-octa-hydro-2H-pyrazino[1′,2′:4,5] [1,4]oxazino[2,3-e]isoindol-2-yl)piperidine-2,6-dione] | < 1 | > 100 | –
> 75 | COc1cc(N2CCC(CCN3CCN4c5cc6c(cc5OC[C@@H]4C3)C(=O)N([C@H]3CCC(=O)NC3=O)C6)CC2)c(F)cc1[C@@H]1c2ccc(O)cc2CC[C@@H]1c1ccccc1 [Compound A188, (S)-3-((S)-3-(2-(1-(2-fluoro-4-((1S,2S)-6-hydroxy-2-phenyl-1,2,3,4-tetrahydronaphthalen-1-yl)-5-methoxyphenyl)piper-idin-4-yl)ethyl)-8-oxo-1,2,3,4,4a,5,8,10-octahydro-9H-pyr-azino[1′,2′:4,5][1,4]oxazino [2,3-f]isoindol-9-yl)piperidine-2,6-dione] | < 1 | 10 to 100 | –
> 75 | COC1(CCN2CCN3c4ccc5c(c4OC[C@H]3C2)CN([C@H]2CCC(=O)NC2=O)C5=O)CCN(c2ccc([C@@H]3c4ccc(O)cc4CC[C@@H]3c3ccccc3)cc2)CC1 [Compound A192, (S)-3-((R)-7-(2-(1-(4-((1R,2S)-6-hydroxy-2-phenyl-1,2,3,4-tetrahydronaphthalen-1-yl)-phenyl)-4-methoxypiperidin-4-yl)cthyl)-1-oxo-1,3,5,5a,6,7,8,9-octahydro-2H-pyrazino[1′,2′: 4,5][1,4]oxazino[2,3-e]isoindol-2-yl)piperidine-2,6-dione] | < 1 | > 100 | –

Second part, the compound before the results:

Compound | Dmax [1, 3] [%] | DC50 ([1]; 16 hrs treatment) [nM] | IC50 [2] [nM] | Dmax [1, 4] [%]
COc1cc(N2CCC(CCN3CCC4(CC3)COc3c4ccc4c3CN([C@H]3CCC(=O)NC3=O)C4=O)CC2)c(F)cc1[C@@H]1c2ccc(O)cc2CC[C@@H]1c1ccccc1 [Compound A187, (S)-3-(1′-(2-(1-(2-fluoro-4-((1S,2S)-6-hydroxy-2-phenyl-1,2,3,4-tetrahydronaphthalen-1-yl)-5-methoxyphenyl)piperidin-4-yl)ethyl)-6-oxo-6,8-dihydro-2H,7H-spiro[furo[2,3-e]iso-indole-3,4′-piperidin]-7-yl)-piperidine-2,6-dione] | – | < 1 | 10 to 100 | > 75
COc1cc(N2CCC(CCN3CCC4(CC3)COc3cc5c(cc34)CN([C@H]3CCC(=O)NC3=O)C5=O)CC2)c(F)cc1[C@@H]1c2ccc(O)cc2CC[C@@H]1c1ccccc1 [Compound A189, (S)-3-(1′-(2-(1-(2-fluoro-4-((1S,2S)-6-hydroxy-2-phenyl-1,2,3,4-tetrahydronaphthalen-1-yl)-5-methoxyphenyl)piper-idin-4-yl)ethyl)-7-oxo-5,7-dihydro-2H,6H-spiro[furo[2,3-f]isoindole-3,4′-piperidin]-6-yl)piperidine-2,6-dione] | – | < 1 | 10 to 100 | > 75
COc1c([C@@H]2c3ccc(O)cc3CC[C@@H]2c2ccccc2)ccc(N2CCC(CN3CCC4(CC3)COc3cc5c(cc34)CN([C@H]3CCC(=O)NC3=O)C5=O)CC2)c1F [Compound A191, (S)-3-(1′-((1-(2-fluoro-4-((1S, 2S)-6-hydroxy-2-phenyl-1,2,3,4-tetrahydronaphthalen-1-yl)-3-methoxyphenyl)piper-idin-4-yl)methyl)-7-oxo-5,7-dihydro-2H,6H-spiro[furo[2,3-f]isoindole-3,4′-piperidin]-6-yl)piperidine-2,6-dione] | – | < 1 | 10 to 100 | 50 to 75
